From patent EP0083750A1, “Antimycotic azolyl butanols” (BAYER AG, priority 1981, dated 1983)
Converted amounts (≈) assume the structure as drawn.

Key:
[1] = system: Candida albicans; assay: Antimycotic in-vitro activity, serial dilution test (MIC); assay type: cell-based; conditions: Reihenverdünnungstest, 5 x 10^4 Keimen/ml Substrat, Fleischextrakt-Traubenzucker-Bouillon, 20°C, 24 bis 96 Stunden, read-out: MHK-Werte in γ/ml Nährmedium, Candida albicans
Protocol: (§1) Versuchsbeschreibung: • Die in-vitro-Prüfungen wurden im Reihenverdünnungstest mit Keiminokula von durchschnittlich 5 x 10^4 Keimen/ml Substrat durchgeführt. Als Nährmedium dienten • a) für Dermatophyten und Schimmelpilze: Sabourand's milieu d'epreuve • b) für Hefen: • Fleischextrakt-Traubenzucker-Bouillon.
(§2) Die Bebrütungstemperatur betrug 20°C, die Bebrütungsdauer lag bei 24 bis 96 Stunden bei Hefen und 96 Stunden bei Dermatophyten und Schimmelpilzen.

[2] = system: Trichophyton mentagr.; assay: as above; assay type: cell-based; conditions: 96 h, Reihenverdünnungstest, 5 x 10^4 Keimen/ml Substrat, Sabourand's milieu d'epreuve, 20°C, 96 Stunden, read-out: MHK-Werte in γ/ml Nährmedium, Trichophyton mentagr.
Protocol: as §1, §2

[3] = system: Candida-Zellen; assay: Antimycotic in-vivo activity (oral) in mouse candidosis; parameters: species or system Mäuse vom Typ SPF-CF1; key to Wirkung (Überlebende am 6.Tag p.i.): +++++: = sehr gute Wirkung = 90 % Überlebende am 6.Tag p.i.; ++++: = gute Wirkung = 80 % Überlebende am 6.Tag p.i.; +++: = Wirkung = 60 % Überlebende am 6.Tag p.i.; ++: = schwache Wirkung = 40 % Überlebende am 6.Tag p.i.; +: = Spur Wirkung = unter 40 % Überlebende am 6. Tag; k.W.: = keine Wirkung; conditions: for Wirkung (Überlebende am 6.Tag p.i.): Mäuse SPF-CF1, intravenös infiziert mit 1 - 2 x 10^6 Candida-Zellen, jeweils 50 - 100 mg/kg oral, 1 Stunde vor und 7 Stunden nach Infektion; for Wirkung im Vergleich zu den bekannten Verbindungen (A) und (B): Mäusecandidose, oral
Protocol: Antimykotische in-vivo-Wirksamkeit (oral) bei Mäusecandidose
Mäuse vom Typ SPF-CF1 wurden intravenös mit 1 - 2 x 10^6 logarithmisch wachsenden Candida-Zellen, die in physiologischer Kochsalzlösung suspendiert werden, infiziert. Eine Stunde vor und sieben Stunden nach der Infektion werden die Tiere mit jeweils 50 - 100 mg/kg Körpergewicht der Präparate oral behandelt.
Unbehandelte Tiere starben 3 bis 6 Tage post infektionem. Die Überlebensrate am 6. Tag post infektionem betrug bei unbehandelten Kontrolltieren etwa 5 %.

[4] = system: Aspergillus fumig.; assay: Antimycotic in-vitro activity, serial dilution test (MIC); assay type: cell-based; conditions: 96 h, Reihenverdünnungstest, 5 x 10^4 Keimen/ml Substrat, Sabourand's milieu d'epreuve, 20°C, 96 Stunden, read-out: MHK-Werte in γ/ml Nährmedium, Aspergillus fumig.
Protocol: as §1, §2

[5] = system: Microsporum canis; assay: as above; assay type: cell-based; conditions: 96 h, Reihenverdünnungstest, 5 x 10^4 Keimen/ml Substrat, Sabourand's milieu d'epreuve, 20°C, 96 Stunden, read-out: MHK-Werte in γ/ml Nährmedium, Microsporum canis
Protocol: as §1, §2

[6] = system: Torulopsis glabrata; assay: as above; assay type: cell-based; conditions: Nakaseomyces glabratus; Reihenverdünnungstest, 5 x 10^4 Keimen/ml Substrat, Fleischextrakt-Traubenzucker-Bouillon, 20°C, 24 bis 96 Stunden; read-out: MHK-Werte in γ/ml Nährmedium, Torulopsis glabrata
Protocol: as §1, §2

[7] = system: Trichophyton von mentagrophytes; assay: Antimycotic in-vivo activity (local) in experimental guinea pig trichophytosis; conditions: Meerschweinchen-Trichophytie, lokal
From the text: Antimikrobielle in-vivo-Wirksamkeit (lokal) am Modell der experimentellen Meerschweinchen-Trichophytie
Weiße Mäuse der Rasse Pirbright-white wurden auf dem geschorenen, nicht skarifizierten Rücken mit einer Mikro-und Makrokonidien-Suspension von Trichophyton von mentagrophytes infiziert.
Die infizierten Tieren wurden, beginnend mit dem 3. Tag p.i., 1 x täglich mit einer 15%-igen Lösung der erfindungsgemäßen Präparate (in Dimethylsulfoxid : Glycerin = 1 : 4) lokal behandelt.
Bei unbehandelten Tieren entwickelte sich innerhalb 12 Tagen p.i. das typische Bild einer Dermatophytose mit Rötung, Schuppung und Haarausfall bis zum totalen Integument-Defekt an der Infektionsstelle.

[8] = system: Dermatophyten, Schimmelpilze, Hefen; assay: Antimycotic in-vitro activity, serial dilution test, overall comparison with prior art; assay type: cell-based; conditions: in-vitro Reihenverdünnungstest
Protocol: as §1, §2

Row | Compound | MIC [1] [µg/mL] | MIC [2] [µg/mL] | Wirkung (Überlebende am 6.Tag p.i.) [3] | MIC [4] [µg/mL] | MIC [5] [µg/mL] | MIC [6] [µg/mL] | Wirkung [7] | antimykotische Wirkung im Vergleich zu den bekannten Verbindungen (A) und (B) [8] | Wirkung im Vergleich zu den bekannten Verbindungen (A) und (B) [3]
1 | CC(C(O)c1ccc(Cl)cc1)n1cncn1 (centres unmarked) [(A), reference compound] | > 64 | > 64 | k.W. | – | – | – | – | – | –
2 | OC(Cn1cncn1)c1ccc(-c2ccc(Cl)cc2)cc1 (centres unmarked) [(B), reference compound] | > 64 | 4 (≈ 13.3 µM) | k.W. | > 64 | > 64 | – | – | – | –
3 | CC(C)(COc1ccc(Cl)cc1)C(O)C(Cc1ccc(Cl)cc1Cl)n1cncn1 (centres unmarked) [Beispiel 11] | < 1 | < 1 | ++ (= schwache Wirkung = 40 % Überlebende am 6.Tag p.i.) | 64 (≈ 141 µM) | < 1 | < 1 | gute bis sehr gute Wirkung | bessere antimykotische Wirkung | bessere Wirkung
4 | CC(C)(COc1ccc(Cl)cc1)C(O)C(CC1CCCCC1)n1ccnc1 (centres unmarked) [Beispiel 20] | < 1 | < 1 | ++++ (= gute Wirkung = 80 % Überlebende am 6.Tag p.i.) | 4 (≈ 10.2 µM) | 4 (≈ 10.2 µM) | 8 (≈ 20.5 µM) | gute bis sehr gute Wirkung | bessere antimykotische Wirkung | bessere Wirkung
5 | C=CCC(C(O)C(C)(C)Oc1ccc(Cl)cc1Cl)n1cncn1 (centres unmarked) [Beispiel 53] | 4 (≈ 11.2 µM) | 2 (≈ 5.61 µM) | – | 8 (≈ 22.5 µM) | 2 (≈ 5.61 µM) | 32 (≈ 89.8 µM) | – | bessere antimykotische Wirkung | –
6 | C=CCC(C(O)C(C)(C)Oc1ccc(Cl)cc1)n1cncn1 (centres unmarked) [Beispiel 56] | 4 (≈ 12.4 µM) | 8 (≈ 24.9 µM) | – | 8 (≈ 24.9 µM) | 4 (≈ 12.4 µM) | 8 (≈ 24.9 µM) | – | bessere antimykotische Wirkung | –
7 | CCC(C(O)C(C)(C)Oc1ccc(Cl)cc1)n1cncn1 (centres unmarked) [Beispiel 57] | 8 (≈ 25.8 µM) | 8 (≈ 25.8 µM) | – | 32 (≈ 103 µM) | 8 (≈ 25.8 µM) | 32 (≈ 103 µM) | – | bessere antimykotische Wirkung | –
8 | CCCCC(C(O)C(C)(C)Oc1ccc(C(=O)OCC)cc1)n1cncn1 (centres unmarked) [Beispiel 62] | 8 (≈ 21.3 µM) | 2 (≈ 5.33 µM) | – | 8 (≈ 21.3 µM) | 8 (≈ 21.3 µM) | 32 (≈ 85.2 µM) | – | bessere antimykotische Wirkung | –
9 | CCOC(=O)c1ccc(OC(C)(C)C(O)C(Cc2ccc(Cl)cc2Cl)n2cncn2)cc1 (centres unmarked) [Beispiel 64] | < 1 | 4 (≈ 8.36 µM) | – | 64 (≈ 134 µM) | 2 (≈ 4.18 µM) | 64 (≈ 134 µM) | – | bessere antimykotische Wirkung | –
10 | C=CCC(C(O)C(C)(C)Oc1ccc(Cl)cc1Cl)n1ccnc1 (centres unmarked) [Beispiel 66] | < 1 | 4 (≈ 11.3 µM) | – | 16 (≈ 45 µM) | 8 (≈ 22.5 µM) | 4 (≈ 11.3 µM) | – | bessere antimykotische Wirkung | –
11 | CCCCC(C(O)C(C)(C)Cc1ccc(Cl)cc1Cl)n1cncn1 (centres unmarked) [Beispiel 81] | 2 (≈ 5.4 µM) | < 1 | – | < 1 | 2 (≈ 5.4 µM) | 8 (≈ 21.6 µM) | – | bessere antimykotische Wirkung | –
12 | CC(C)(Cc1ccccc1)C(O)C(Cc1ccc(Cl)cc1Cl)n1cncn1 (centres unmarked) [Beispiel 83] | < 1 | < 1 | – | 32 (≈ 79.1 µM) | 8 (≈ 19.8 µM) | 4 (≈ 9.89 µM) | – | bessere antimykotische Wirkung | –
13 | CCOCC(C)(C)C(O)C(Cc1ccc(Cl)cc1Cl)n1cncn1 (centres unmarked) [Beispiel 85] | < 1 | 4 (≈ 10.7 µM) | – | 16 (≈ 43 µM) | 8 (≈ 21.5 µM) | 4 (≈ 10.7 µM) | – | bessere antimykotische Wirkung | –
14 | CCOCC(C)(C)C(O)C(Cc1ccc(Cl)c(Cl)c1)n1cncn1 (centres unmarked) [Beispiel 86] | 16 (≈ 43 µM) | 2 (≈ 5.37 µM) | – | 8 (≈ 21.5 µM) | 4 (≈ 10.7 µM) | 32 (≈ 86 µM) | – | bessere antimykotische Wirkung | –
15 | COc1cccc(CC(C(O)C(C)(C)COc2ccc(Cl)cc2)n2cncn2)c1 (centres unmarked) [Beispiel 87] | < 1 | < 1 | ++ (= schwache Wirkung = 40 % Überlebende am 6.Tag p.i.) | 16 (≈ 38.5 µM) | 8 (≈ 19.2 µM) | 2 (≈ 4.81 µM) | – | bessere antimykotische Wirkung | bessere Wirkung
16 | C=CCCC(C(O)C(C)(C)COc1ccc(Cl)c(Cl)c1)n1cncn1 (centres unmarked) [Beispiel 95] | 2 (≈ 5.2 µM) | < 1 | – | 8 (≈ 20.8 µM) | < 1 | 32 (≈ 83.3 µM) | – | bessere antimykotische Wirkung | –
17 | CC(C)(COc1ccc(-c2ccccc2)cc1)C(O)Cn1ccnc1 (centres unmarked) [Beispiel 96] | < 1 | < 1 | – | 64 (≈ 190 µM) | < 1 | 16 (≈ 47.6 µM) | – | bessere antimykotische Wirkung | –
18 | CCCCC(C(O)C(C)(C)COc1ccc(-c2ccccc2)cc1)n1cncn1 (centres unmarked) [Beispiel 100] | 8 (≈ 20.3 µM) | < 1 | +++ (= Wirkung = 60 % Überlebende am 6.Tag p.i.) | 4 (≈ 10.2 µM) | 8 (≈ 20.3 µM) | 32 (≈ 81.3 µM) | – | bessere antimykotische Wirkung | bessere Wirkung
19 | CC(C)(Cc1ccc(Cl)cc1)C(O)C(Cc1ccccc1)n1ccnc1 (centres unmarked) [Beispiel 128] | < 1 | < 1 | ++++ (= gute Wirkung = 80 % Überlebende am 6.Tag p.i.) | 8 (≈ 21.7 µM) | 16 (≈ 43.4 µM) | 8 (≈ 21.7 µM) | – | bessere antimykotische Wirkung | bessere Wirkung
